Literature values in US9625473B2, “Cytokine biomarkers as predictive biomarkers of clinical response for glatiramer acetate” (TEVA PHARMACEUTICAL INDUSTRIES LTD., priority 2010, dated 2017).

Columns and labels:
PBMC = conditions: GA-treated vs. untreated patients
IFN-gamma = conditions: after stimulation with high GA concentrations, partially mediated by CD8 cells, GA-treated vs. untreated patients
IL-4 = conditions: after stimulation with GA, mediated predominantly by CD4 cells, GA-treated vs. untreated patients

In the case of Glatiramer acetate [GA], the “number of relapses, compared with placebo” value (RRMS subjects; RRMS subjects, GA 20 mg/day, three double-blind placebo-controlled studies) is listed as “significant reduction”, the tolerability (RRMS subjects; daily standard dose of 20 mg) is listed as “generally well tolerated” and the relapse rate reduction (RRMS subjects; largest controlled study, GA 20 mg vs placebo) is listed as 32%. The relapse rate (RRMS subjects; largest controlled study, under GA 20 mg) was 1.34, the “median cumulative number of Gd-enhancing lesions” value (RRMS subjects; over 9 months of treatment, 20 mg group, MRI) was 11 lesions and the “GA-induced PBMC proliferation” value (PBMC) was “significant reduction”. For the same substance, the IFN-gamma response (IFN-gamma) was “elevated” and the “IL-4 ELISPOT response” value (IL-4) was “positive”.
